# Data taken from patent publication US20170290886A1, “TREATMENT OF NEURODEVELOPMENTAL DISORDERS” (Academia Sinica, priority 2016, published 2017).
# Where no end group is shown, it is not given here.
# Columns and labels:
# Assay type in all cases: in vivo, rat
# [1] = system: MeCP2 phosphorylation at Ser-421; experiment: MeCP2 phosphorylation at Ser-421 in CA1 area (western blot); conditions: 1 hr
# Protocol: (§1) The E3 SUMO-protein ligase PIAS1, MeCP2, Flag, V5 and Myc, the clarified lysate (0.5 mg) was immunoprecipitated by mixed with 0.5 μl of anti-PIAS1 antibody (Catalog No. 2474-1, Epitomics, Burlingame, Calif.), 2 μl of anti-MeCP2 antibody (Catalog No. 3456, Cell Signaling, Danvers, Mass.), 2 μl of anti-Flag M2 antibody (Catalog No. F1804, Sigma-Aldrich, St. Louis, Mo.), 1 μl of anti-VS antibody (Catalog No. MCA2895, AbD Serotec, Kidlington, UK) and 2 μl of anti-Myc antibody (Catalog No. 05-419, Millipore, Bedford, Mass.) at 4° C., and allowed the mixture to react overnight. Twenty microliter of rabbit or mouse IgG was used in the control group. The protein A or G magnetic beads ([…], 50% slurry, GE Healthcare, Barrington, IL) were added to the IP reaction product to catch the immune complex at 4° C. for 3 h. The immune complex on beads were washed three times with washing buffer containing 20 mM HEPES (pH 7.4), 150 mM NaCl, 1 mM EDTA, 1% IGEPAL CA-630, 1 mM DTT, 50 mM β-glycerophosphate, 50 mM NaF, 10 mg/ml PMSF, 4 µg/ml aprotinin, 4 μg/ml leupeptin and 4 μg/ml pepstatin, and then subject to 8% SDS-PAGE followed by transferring onto the Nitrocellulose (NC) membrane (GE Healthcare). […] The protein bands were quantified by using the NIH Image J Software. […]
# MeCP2 SUMOylation = experiment: In vitro SUMOylation assay for CA1 tissue
# Protocol: Hippocampal CA1 tissue lysate was prepared in the same way as that prepared for western blot. For immunoprecipitating the MeCP2, the clarified lysate (0.5 mg) was immunoprecipitated with 3 μl of anti-MeCP2 antibody (Catalog No. 3456, Cell Signaling) at […] overnight. The protein A agarose beads ([…], 50% slurry, GE Healthcare, Barrington, Ill.) were added to the IP reaction product to catch the immune complex at […] for 3 h. The immune complex on beads were washed three times with washing buffer containing 20 mM HEPES (pH 7.4), 150 mM NaCl, 1 mM EDTA, 1% IGEPAL CA-630, 1 mM DTT, 50 mM β-glycerophosphate, 50 mM NaF, […] PMSF, […] and subject to in vitro SUMOylation reaction with the addition of recombinant PIAS1 protein (3 μl, Catalog No. BML-UW9960, Enzo Life
# Sciences, Farmingdale, N.Y.), E1(1 μl), E2 (1 μl) and the SUMO1 (0.5 μl) proteins provided in the kit. In vitro SUMOylation assay was performed using the SUMO linkTM kit according to the manufacturer's instructions (Active Motif, Carlsbad, Calif.) and boiled in Laemmli sample buffer at 95° C. for 10 min. The in vitro SUMOylation product was subject to 8% SDS-PAGE followed by transferring onto the PVDF membrane (Millipore). The membrane was immunoblotted with anti-MeCP2 antibody (1:1000, Catalog No. 3456, Cell Signaling) or anti-SUMO1 antibody (1:4000, Catalog No. 40120, Active Motif). For determination of endogenous MeCP2 SUMOylation after PIAS1 siRNA transfection, no E1, E2, SUMO1 and PIAS1 proteins were added to the IP reaction product. The remaining procedures were the same as that for carrying out the in vitro SUMOylation assay.
# Rats were anesthetized with pentobarbital (40 mg/kg) and subject to stereotaxic surgery. Two 23-gauge, stainless-steel, thin-wall cannulae were implanted bilaterally to the CA1 area of rat brain at the following coordinates: 3.5 mm posterior to the bregma, ±2.5 mm lateral to the midline and 3.4 mm ventral to the skull surface. After recovery from the surgery, NMDA (2 μg/μl), IGF-1 (100 ng/ml), CRF (100 ng/μl) and dexamethasone (30 ng/μl) were directly injected to the CA1 area at a rate of 0.1 μl/min. A total of 0.7 μl was injected to each side. For transient Mecp2 plasmid DNA transfection, 0.7 μg/μl plasmid DNA complex ([…]) was injected directly to CA1 area bilaterally in the rat brain using the non-viral transfection agent polyethyleneimine (PEI). Before injection, plasmid DNA was diluted in 5% glucose to a stock concentration of 2.77 μg/μl. Branched PEI of 25 kDa (Sigma, St. Louis, Mo.) was diluted to 0.1 M concentration in 5% glucose and added to the DNA solution. Immediately before injection, 0.1 M PEI was added to reach a ratio of PEI nitrogen per DNA phosphate equals to 10. […]
# PIAS1 = PIAS1 expression in CA1 area (western blot); conditions: siRNA 8 pmol; FIG. 2h lower panel
# Protocol: as §1
compound,measurement,setting,value
"CN[C@H](CC(=O)O)C(=O)O [NMDA, N-methyl-D-aspartate]",phosphorylation level of MeCP2 at Ser-421,"[1]; NMDA 2 μg/μl injected to CA1 area, FIG. 3b",increased the phosphorylation level of MeCP2 at Ser-421
same,level of MeCP2 SUMOylation,"MeCP2 SUMOylation; NMDA 2 μg/μl injected to CA1 area, 1 hr, vs Flag-vector + PBS, FIG. 3b",increased the level of MeCP2 SUMOylation
"PIAS1 siRNA: siRNA against PIAS1, SEQ ID NO: 18 and 19 (chain 1 UCCGGAUCAUUCUAGAGCUTT; chain 2 AGCUCUAGAAUGAUCCGGATT; chemistry not given here)",level of endogenous MeCP2 SUMOylation,"MeCP2 SUMOylation; siRNA 8 pmol to CA1 area, 48 hrs later, vs control siRNA, FIG. 2g, 2h",significantly decrease the level of endogenous MeCP2 SUMOylation
same,PIAS1 expression in CA1 area,PIAS1,decreased PIAS1 expression
"IGF-1: Insulin-like growth factor-1, purchased from Sigma-Aldrich",phosphorylation level of MeCP2 at Ser-421,"[1]; IGF-1 100 ng/ml injected to CA1 area, FIG. 3c",increased the phosphorylation level of MeCP2 at Ser-421
same,level of MeCP2 SUMOylation,"MeCP2 SUMOylation; IGF-1 100 ng/ml injected to CA1 area, 1 hr later, vs PBS, FIG. 3c",significantly increased the level of MeCP2 SUMOylation
"CRF: Corticotropin-releasing factor, purchased from Sigma-Aldrich (SEEPPISLDLTFHLLREVLEMARAEQLAQQAHSNRKLMEII; ends and bridges not checked; UniProt P06850 154-194, looked up)",level of MeCP2 SUMOylation,"MeCP2 SUMOylation; CRF injected to CA1 area, 1 hr later, vs PBS, FIG. 3d",markedly increased the level of MeCP2 SUMOylation
